Reference: ChEMBL document CHEMBL4680308, “Chemo-enzymatic synthesis of adenine substituted nicotinic acid adenine dinucleotide phosphate (NAADP) analogs” (Bioorg Med Chem, 2021)

Tests used:
[1] = Desensitization of NAADP receptor in sea urchin egg homogenate assessed as ability to induce time dependent sub-threshold desensitization of calcium release pretreated for 7 mins followed by 1 uM NAADP added by measuring inhibition of calcium release by fluorometric assay; assay type: tissue-based, Strongylocentrotus purpuratus
[2] = Agonist activity at NAADP receptor in sea urchin egg homogenate assessed as increase in calcium release by fluo-3 based flurometric assay; assay type: tissue-based, Strongylocentrotus purpuratus

SMILES	IC50 [1] [nM]	EC50 [2] [nM]
Nc1ncnc2c1ncn2[C@@H]1O[C@H](COP(=O)(O)OP(=O)(O)OC[C@H]2O[C@@H]([n+]3cccc(C(=O)[O-])c3)[C@H](O)[C@@H]2O)[C@@H](O)[C@H]1OP(=O)(O)O	0.14	8
C#Cc1nc2c(N)ncnc2n1[C@@H]1O[C@H](COP(=O)(O)OP(=O)(O)OC[C@H]2O[C@@H]([n+]3cccc(C(=O)[O-])c3)[C@H](O)[C@@H]2O)[C@@H](O)[C@H]1OP(=O)(O)O	12.1	710
C#Cc1nc2c(N)ncnc2n1[C@@H]1O[C@H](COP(=O)(O)OP(=O)(O)OC[C@H]2O[C@@H]([n+]3cc(N=[N+]=[N-])cc(C(=O)[O-])c3)[C@H](O)[C@@H]2O)[C@@H](O)[C@H]1OP(=O)(O)O	99	2860
